Values of other authors as cited in patent US7629342B2, “Azabicyclic heterocycles as cannabinoid receptor modulators” (Bristol-Myers Squibb Company, priority 2005, dated 2009).

Assays:
[1] = chronic administration for two weeks
[2] = highest dose; relative to 14.8% for placebo
[3] = 16 week trial period, Phase IIb

For Cc1c(C(=O)NN2CCCCC2)nn(-c2ccc(Cl)cc2Cl)c1-c1ccc(I)cc1 [AM-251], the body weight [1] is listed as “substantial body weight reduction”.

In the case of Cc1c(C(=O)NN2CCCCC2)nn(-c2ccc(Cl)cc2Cl)c1-c1ccc(Cl)cc1 [SR-141716], the “patients stayed abstinent from cigarette smoke” value [2] is given as 30.2% and the “body weight in human subjects” value [3] is given as “dose-dependently reduced body weight”.
